The values below come from patent publication US20220220128A1, “HETEROCYCLIC COMPOUNDS AS KINASE INHIBITORS, COMPOSITIONS COMPRISING THE HETEROCYCLIC COMPOUND, AND METHODS OF USE THEREOF” (JS Innopharm (Shanghai) Ltd, priority 2019, published 2022).

In experiment [1] the target is T1, human KDR kinase (Homo sapiens, UniProt P35968).
T1 construct: purchased Carna 08-191
Put plainly: KDR Kinase Assay (LanthaScreen TR-FRET enzymatic assay). It counts as biochemical. The note with it: 1.2 nM KDR, 92 μM ATP. An outline of the steps: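 TR-FRET enzymatic format: after 15-min room-temperature compound pretreatment, 1.2 nM human KDR phosphorylated 3 μM FAM-P22 with 92 μM ATP (HEPES pH 7.5, 28° C., one hour). Reactions were quenched with EDTA buffer. IC50 came from nonlinear sigmoid fits of percent-of-vehicle signal ratios.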

Experiment [2] has as its system TT cells. Put plainly: TT Cell Proliferation Assay (WST-8, 8 days). It is filed as cell-based. The conditions noted are these: growth inhibition in TT cells, read-out: TT Cellular Activity. Put shortly:
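IC50 was derived from absorbance at 450 nm after 5 h with WST-8, following 8 days' incubation at 37 °C. Final compound levels spanned 0.0005–5 μM in 0.5% DMSO. TT cells were seeded at 6,000 per well in 10% FBS RPMI-1640 and left to attach for 24 h beforehand.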
On the technique in general: Tetrazolium assays rely on reduction of a dye to a coloured formazan, in cell work by metabolically active cells.

Experiment [3] addresses T2, human RET kinase (Homo sapiens, UniProt P07949).
T2 construct: purchased Carna 08-159
Put plainly: RET Kinase Assay (LanthaScreen TR-FRET enzymatic assay). It is filed as biochemical. The conditions noted are these: 7 nM RET, 23 μM ATP. Put shortly: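 TR-FRET enzymatic read-out using 23 μM ATP, 3 μM FAM-P2 substrate and 7 nM human RET, after 15-min compound pretreatment at room temperature and a 1 h reaction at 28° C in HEPES pH 7.5 buffer. Percent of DMSO control fitted to nonlinear sigmoid curves for IC50.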
On the technique in general: In TR-FRET formats the signal depends on donor and acceptor labels being close together.

Like-named read-outs stand apart in the source and are kept apart here. Bounds are passed on as bounds.

T1 sequence (P35968 20-1356): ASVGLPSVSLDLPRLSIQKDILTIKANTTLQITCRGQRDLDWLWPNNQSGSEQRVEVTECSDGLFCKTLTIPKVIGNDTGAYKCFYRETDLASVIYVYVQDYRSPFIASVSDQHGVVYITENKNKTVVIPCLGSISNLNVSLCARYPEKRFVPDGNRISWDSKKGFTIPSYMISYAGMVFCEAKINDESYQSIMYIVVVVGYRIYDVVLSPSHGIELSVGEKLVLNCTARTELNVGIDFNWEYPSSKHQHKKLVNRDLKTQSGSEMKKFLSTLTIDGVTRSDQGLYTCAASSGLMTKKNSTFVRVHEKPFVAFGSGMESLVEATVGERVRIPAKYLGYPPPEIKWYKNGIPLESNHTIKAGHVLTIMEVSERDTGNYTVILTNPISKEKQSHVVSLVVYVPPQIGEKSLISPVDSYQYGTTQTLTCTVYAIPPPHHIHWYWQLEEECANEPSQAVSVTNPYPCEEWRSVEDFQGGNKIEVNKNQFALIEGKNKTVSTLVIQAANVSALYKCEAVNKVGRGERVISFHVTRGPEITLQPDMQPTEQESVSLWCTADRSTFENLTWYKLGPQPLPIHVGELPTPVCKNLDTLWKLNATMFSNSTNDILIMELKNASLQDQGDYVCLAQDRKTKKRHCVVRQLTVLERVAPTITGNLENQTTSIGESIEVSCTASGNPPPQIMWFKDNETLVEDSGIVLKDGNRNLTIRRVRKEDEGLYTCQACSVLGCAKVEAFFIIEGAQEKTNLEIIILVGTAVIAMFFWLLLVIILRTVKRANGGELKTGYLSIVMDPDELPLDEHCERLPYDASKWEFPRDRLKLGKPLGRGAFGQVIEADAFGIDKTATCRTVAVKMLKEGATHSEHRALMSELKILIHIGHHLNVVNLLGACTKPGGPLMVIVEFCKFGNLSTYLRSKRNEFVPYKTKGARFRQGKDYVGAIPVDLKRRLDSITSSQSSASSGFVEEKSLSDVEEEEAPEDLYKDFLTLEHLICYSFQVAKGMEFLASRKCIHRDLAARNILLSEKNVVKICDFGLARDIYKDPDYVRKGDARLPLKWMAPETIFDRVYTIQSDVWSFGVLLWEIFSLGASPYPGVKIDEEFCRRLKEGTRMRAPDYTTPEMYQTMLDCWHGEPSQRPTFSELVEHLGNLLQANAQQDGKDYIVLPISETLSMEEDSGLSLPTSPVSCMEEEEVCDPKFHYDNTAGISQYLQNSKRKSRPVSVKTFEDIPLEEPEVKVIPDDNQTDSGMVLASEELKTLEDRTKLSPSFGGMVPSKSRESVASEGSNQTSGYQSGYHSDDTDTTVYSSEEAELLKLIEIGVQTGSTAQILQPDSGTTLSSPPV
T2 sequence (P07949 29-1114): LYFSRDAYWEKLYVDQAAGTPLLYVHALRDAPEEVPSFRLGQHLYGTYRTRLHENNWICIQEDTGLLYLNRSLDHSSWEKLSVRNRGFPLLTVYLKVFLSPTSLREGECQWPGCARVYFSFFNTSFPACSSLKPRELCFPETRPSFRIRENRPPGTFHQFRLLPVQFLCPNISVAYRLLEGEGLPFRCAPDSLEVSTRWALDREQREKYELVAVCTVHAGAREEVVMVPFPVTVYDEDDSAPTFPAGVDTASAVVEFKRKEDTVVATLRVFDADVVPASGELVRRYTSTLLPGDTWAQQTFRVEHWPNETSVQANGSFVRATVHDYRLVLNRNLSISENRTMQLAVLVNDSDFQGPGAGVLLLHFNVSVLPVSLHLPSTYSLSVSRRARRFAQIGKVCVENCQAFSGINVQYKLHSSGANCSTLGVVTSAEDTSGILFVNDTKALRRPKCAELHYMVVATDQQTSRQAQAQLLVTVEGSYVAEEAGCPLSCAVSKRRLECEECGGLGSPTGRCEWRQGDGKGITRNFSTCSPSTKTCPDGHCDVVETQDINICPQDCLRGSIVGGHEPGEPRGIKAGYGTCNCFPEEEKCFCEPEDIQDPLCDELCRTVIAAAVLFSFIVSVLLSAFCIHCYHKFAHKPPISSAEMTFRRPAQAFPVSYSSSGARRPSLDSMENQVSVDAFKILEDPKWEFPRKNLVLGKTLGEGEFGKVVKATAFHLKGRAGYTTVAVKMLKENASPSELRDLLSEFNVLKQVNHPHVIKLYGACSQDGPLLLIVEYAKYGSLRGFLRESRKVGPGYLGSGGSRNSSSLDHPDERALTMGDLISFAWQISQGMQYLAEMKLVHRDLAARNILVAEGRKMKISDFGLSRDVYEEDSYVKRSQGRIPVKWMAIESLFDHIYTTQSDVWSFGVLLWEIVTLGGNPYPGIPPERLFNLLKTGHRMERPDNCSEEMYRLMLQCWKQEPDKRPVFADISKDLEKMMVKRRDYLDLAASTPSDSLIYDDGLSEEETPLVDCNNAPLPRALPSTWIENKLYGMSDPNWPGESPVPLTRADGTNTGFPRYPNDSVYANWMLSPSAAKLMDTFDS

For the compound `Cn1cc(-c2cc(-c3ccc(N4C[C@@H]5[C@@H](CNC(=O)c6ncccc6C(F)(F)F)[C@@H]5C4)nc3)c3c(C#N)cnn3c2)cn1` [Example 86, N-(((1R,5S,6s)-3-(5-(3-cyano-6-(1-methyl-1H-pyrazol-4-yl)pyrazolo[1,5-a]pyridin-4-yl)pyridin-2-yl)-3-azabicyclo[3.1.0]hexan-6-yl)methyl)-3-(trifluoromethyl)picolinamide], the IC50 in experiment [1] was 10 to 50 nM; in experiment [2], ≤ 10 nM; in experiment [3], ≤ 10 nM.
In the case of `Cn1cc(-c2cc(-c3ccc(N4C[C@@H]5[C@@H](CNC(=O)C(C)(C)C)[C@@H]5C4)nc3)c3c(C#N)cnn3c2)cn1` [Example 87, N-(((1R,5S,6s)-3-(5-(3-cyano-6-(1-methyl-1H-pyrazol-4-yl)pyrazolo[1,5-a]pyridin-4-yl)pyridin-2-yl)-3-azabicyclo[3.1.0]hexan-6-yl)methyl)pivalamid], the IC50 in experiment [1] is 10 to 50 nM; in experiment [2] (Homo sapiens, TT, 192 h), ≤ 10 nM; in experiment [3] it was ≤ 10 nM.
Regarding `CC(C)CC(=O)NC[C@@H]1[C@H]2CN(c3ccc(-c4cc(-c5cnn(C)c5)cn5ncc(C#N)c45)cn3)C[C@@H]12` [Example 88, N-(((1R,5S,6s)-3-(5-(3-cyano-6-(1-methyl-1H-pyrazol-4-yl)pyrazolo[1,5-a]pyridin-4-yl)pyridin-2-yl)-3-azabicyclo[3.1.0]hexan-6-yl)methyl)-3-methylbutanamide], the IC50 in experiment [1] was 10 to 50 nM; in experiment [2] (Homo sapiens, TT, 192 h), ≤ 10 nM; in experiment [3], ≤ 10 nM.
In the case of `Cn1cc(-c2cc(-c3ccc(N4C5CC6CC4CC(NC(=O)c4ncccc4Cl)(C6)C5)nc3)c3c(C#N)cnn3c2)cn1` [Example 89, 3-chloro-N-((1R,3S,5s,7s)-2-(5-(3-cyano-6-(1-methyl-1H-pyrazol-4-yl)pyrazolo[1,5-a]pyridin-4-yl)pyridin-2-yl)-2-azaadamantan-5-yl)picolinamide], the IC50 in experiment [1] is ≤ 10 nM; in experiment [2] (Homo sapiens, TT, 192 h), ≤ 10 nM; in experiment [3] it was ≤ 10 nM.
In the case of `Cn1cc(-c2cc(-c3ccc(N4C[C@@H]5C[C@@](C)(NC(=O)c6ncccc6F)C[C@@H]5C4)nc3)c3c(C#N)cnn3c2)cn1` [Example 91, N-((3aR,5s,6aS)-2-(5-(3-cyano-6-(1-methyl-1H-pyrazol-4-yl)pyrazolo[1,5-a]pyridin-4-yl)pyridin-2-yl)-5-methyloctahydrocyclopenta[c]pyrrol-5-yl)-3-fluoropicolinamide], the IC50 in experiment [1] is ≤ 10 nM; in experiment [2] (Homo sapiens, TT, 192 h) it was ≤ 10 nM; in experiment [3], ≤ 10 nM.
With `CC(C)(O)COc1cc(-c2ccc(N3C[C@@H]4CN(S(=O)(=O)c5c(F)cccc5Cl)C[C@@H]4C3)nc2)c2c(C#N)cnn2c1` [Example 92, 4-(6-((3aR,6aS)-5-((2-chloro-6-fluorophenyl)sulfonyl)hexahydropyrrolo[3,4-c]pyrrol-2(1H)-yl)pyridin-3-yl)-6-(2-hydroxy-2-methylpropoxy)pyrazolo[1,5-a]pyridine-3-carbonitrile], the IC50 is 10 to 50 nM in experiment [1]; 10 to 50 nM in experiment [2] (Homo sapiens, TT, 192 h); ≤ 10 nM in experiment [3].
Consider `Cn1ccc(-c2cc(-c3ccc(N4C[C@@H]5C[C@@](C)(NC(=O)c6c(F)cccc6Cl)C[C@@H]5C4)nc3)c3c(C#N)cnn3c2)n1` [Example 93, 2-chloro-N-((3aR,5s,6aS)-2-(5-(3-cyano-6-(1-methyl-1H-pyrazol-3-yl)pyrazolo[1,5-a]pyridin-4-yl)pyridin-2-yl)-5-methyloctahydrocyclopenta[c]pyrrol-5-yl)-6-fluorobenzamide], for which the IC50 in experiment [1] is 10 to 50 nM; in experiment [2] (Homo sapiens, TT, 192 h), 10 to 50 nM; in experiment [3], ≤ 10 nM.
For `CC(C)(O)COc1cc(-c2ccc(N3C[C@@H]4[C@@H](CNC(=O)c5ncccc5Cl)[C@@H]4C3)nc2)c2c(C#N)cnn2c1` [Example 95, 3-chloro-N-(((1R,5S,6s)-3-(5-(3-cyano-6-(2-hydroxy-2-methylpropoxy)pyrazolo[1,5-a]pyridin-4-yl)pyridin-2-yl)-3-azabicyclo[3.1.0]hexan-6-yl)methyl)picolinamide], the IC50 is > 100 nM in experiment [1]; 10 to 50 nM in experiment [2] (Homo sapiens, TT, 192 h); ≤ 10 nM in experiment [3].
The like results for `CC(C)C(O)C(=O)NC12CC3CC(C1)N(c1ccc(-c4cc(OCC(C)(C)O)cn5ncc(C#N)c45)cn1)C(C3)C2` [Example 99, N-((1R,3 S,5s,7s)-2-(5-(3-cyano-6-(2-hydroxy-2-methylpropoxy)pyrazolo[1,5-a]pyridin-4-yl)pyridin-2-yl)-2-azaadamantan-5-yl)-2-hydroxy-3-methylbutanamide] were, in that order, 10 to 50 nM, 10 to 50 nM and ≤ 10 nM.
For `Cn1ccc(-c2cc(-c3cnc(N4C[C@@H]5C[C@@](C)(NC(=O)c6c(F)cccc6Cl)C[C@@H]5C4)cn3)c3c(C#N)cnn3c2)n1` [Example 100, 2-chloro-N-((3aR,5s,6aS)-2-(5-(3-cyano-6-(1-methyl-1H-pyrazol-3-yl)pyrazolo[1,5-a]pyridin-4-yl)pyrazin-2-yl)-5-methyloctahydrocyclopenta[c]pyrrol-5-yl)-6-fluorobenzamide], in that order: 10 to 50 nM, ≤ 10 nM and ≤ 10 nM.
The like results for `Cn1ccc(-c2cc(-c3ccc(N4C[C@@H]5C[C@@](C)(NC(=O)c6ncccc6F)C[C@@H]5C4)nc3)c3c(C#N)cnn3c2)n1` [Example 123, N-((3aR,5s,6aS)-2-(5-(3-cyano-6-(1-methyl-1H-pyrazol-3-yl)pyrazolo[1,5-a]pyridin-4-yl)pyridin-2-yl)-5-methyloctahydrocyclopenta[c]pyrrol-5-yl)-3-fluoropicolinamide] were, in that order, 10 to 50 nM, ≤ 10 nM and ≤ 10 nM.
Consider `CC(O)COc1cc(-c2ccc(N3C[C@@H]4[C@@H](CNC(=O)c5ncccc5Cl)[C@@H]4C3)nc2)c2c(C#N)cnn2c1` (stereo partly drawn) [Example 124, 3-chloro-N-(((1R,5S,6s)-3-(5-(3-cyano-6-(2-hydroxypropoxy)pyrazolo[1,5-a]pyridin-4-yl)pyridin-2-yl)-3-azabicyclo[3.1.0]hexan-6-yl)methyl)picolinamide], for which the IC50 is > 100 nM in experiment [1]; 10 to 50 nM in experiment [2] (Homo sapiens, TT, 192 h); ≤ 10 nM in experiment [3].
For `COc1ccc(C(=O)N[C@]2(C)C[C@H]3CN(c4ccc(-c5cc(OCC(C)(C)O)cn6ncc(C#N)c56)cn4)C[C@H]3C2)cn1` [Example 126, N-((3aR,5s,6aS)-2-(5-(3-cyano-6-(2-hydroxy-2-methylpropoxy)pyrazolo[1,5-a]pyridin-4-yl)pyridin-2-yl)-5-methyloctahydrocyclopenta[c]pyrrol-5-yl)-6-methoxynicotinamide], in that order: 10 to 50 nM, 50 to 100 nM and 10 to 50 nM.
The like results for `CC(C)(O)COc1cc(-c2ccc(N3C[C@@H]4C[C@@](C)(NC(=O)c5ncccc5C#N)C[C@@H]4C3)nc2)c2c(C#N)cnn2c1` [Example 127, 3-cyano-N-((3aR,5s,6aS)-2-(5-(3-cyano-6-(2-hydroxy-2-methylpropoxy)pyrazolo[1,5-a]pyridin-4-yl)pyridin-2-yl)-5-methyloctahydrocyclopenta[c]pyrrol-5-yl)picolinamide] were, in that order, > 100 nM, 10 to 50 nM and ≤ 10 nM.
The like results for `CC(C)(O)COc1cc(-c2ccc(N3C[C@@H]4C[C@@](C)(NC(=O)c5ncccc5F)C[C@@H]4C3)nc2)c2c(C#N)cnn2c1` [Example 128, N-((3aR,5s,6aS)-2-(5-(3-cyano-6-(2-hydroxy-2-methylpropoxy)pyrazolo[1,5-a]pyridin-4-yl)pyridin-2-yl)-5-methyloctahydrocyclopenta[c]pyrrol-5-yl)-3-fluoropicolinamide] were, in that order, 10 to 50 nM, 10 to 50 nM and ≤ 10 nM.
Regarding `CC(C)(O)COc1cc(-c2ccc(N3C4CC5CC3CC(NS(C)(=O)=O)(C5)C4)nc2)c2c(C#N)cnn2c1` [Example 131, N-((1R,3S,5s,7s)-2-(5-(3-cyano-6-(2-hydroxy-2-methylpropoxy)pyrazolo[1,5-a]pyidin-4-yl)pyridin-2-yl)-2-azaadamantan-5-yl)methanesulfonamide], the IC50 in experiment [1] was 50 to 100 nM; in experiment [2] (Homo sapiens, TT, 192 h) it was 10 to 50 nM; in experiment [3], ≤ 10 nM.
For `Cn1ccc(-c2cc(-c3cnc(N4C[C@@H]5C[C@@](C)(NC(=O)c6ncccc6F)C[C@@H]5C4)cn3)c3c(C#N)cnn3c2)n1` [Example 140, N-((3aR,5s,6aS)-2-(5-(3-cyano-6-(1-methyl-1H-pyrazol-3-yl)pyrazolo[1,5-a]pyridin-4-yl)pyrazin-2-yl)-5-methyloctahydrocyclopenta[c]pyrrol-5-yl)-3-fluoropicolinamide], in that order: 10 to 50 nM, 10 to 50 nM and ≤ 10 nM.
Consider `Cn1cc(-c2cc(-c3cnc(N4C[C@@H]5C[C@@](C)(NC(=O)c6c(F)cccc6Cl)C[C@@H]5C4)cn3)c3c(C#N)cnn3c2)cn1` [Example 141, 2-chloro-N-((3aR,5s,6aS)-2-(5-(3-cyano-6-(1-methyl-1H-pyrazol-4-yl)pyrazolo[1,5-a]pyridin-4-yl)pyrazin-2-yl)-5-methyloctahydrocyclopenta[c]pyrrol-5-yl)-6-fluorobenzamide], for which the IC50 is ≤ 10 nM in experiment [1]; ≤ 10 nM in experiment [2] (Homo sapiens, TT, 192 h); ≤ 10 nM in experiment [3].
